Patent US9066971B2 (priority 2010, dated 2015)

Test system: mouse colon 26 cell line
Type: in vivo
Conditions: 18 mg/kg aspirin alone, tail vein, twice a week; day 23; compared to PBS alone
Protocol: The shedding microvesicles derived from E. coli, P. aeruginosa, and S. enteritidis were assayed for anticancer activity. A mouse colon 26 cell line was subcutaneously injected at a dose of 1×10^6 cells into mice, and cultured. After one week, a PBS solution containing 1 μg, or 5 μg of each of the Gram-negative bacterial cell-derived microvesicles was injected at a dose of 100 μl twice a week via the tail vein into the mice which were divided into groups, each consisting of three. On day 23 after the transplantation of cancer cells, the sizes of colon cancer tissue were monitored. The volume of cancer tissue was calculated by the equation V=l×s^2/2, wherein 1 is a length of the longest axis of a tumor and s is a length of the axis perpendicular to the longest axis.
The shedding microvesicles derived from S. aureus and Lactobacillus acidophilus were assayed for anticancer activity. […] On day 23 after the transplantation of cancer cells, the sizes of colon cancer tissue were monitored. The volume of cancer tissue was calculated by the equation V=l×s^2/2, wherein 1 is a length of the longest axis of a tumor and s is a length of the axis perpendicular to the longest axis.
A mouse colon 26 cell line was subcutaneously injected at a dose of 1×10^6 cells into mice, and cultured. […] On day 23 after the transplantation of cancer cells, the sizes of colon cancer tissue were monitored. […]

CC(=O)Oc1ccccc1C(=O)O [aspirin]
size of colon tumors: no differences in the size of colon tumors
